From patent US20150045341A1, “DISUBSTITUTED ARYL AZETIDINE DERIVATIVES AS SPHINGOSINE-1 PHOSPHATE RECEPTORS MODULATORS” (Allergan, Inc., priority 2013, published 2015) come the findings set out here.

This assay addresses T1, human S1P1 receptor (Homo sapiens, UniProt P21453).
T1 construct: expressed in transfected cells; membranes from cells stably expressing the S1P1 receptor
As to the kind of experiment: GTP γ35S binding assay for S1P1 activity. Format: biochemical. As to conditions: membranes of cells stably expressing the S1P1 receptor, test compounds 0.08 to 5,000 nM, 30 min at 25° C. The protocol: Compounds were synthesized and tested for S1P1 activity using the GTP γ^35S binding assay. These compounds may be assessed for their ability to activate or block activation of the human S1P1 receptor in cells stably expressing the S1P1 receptor.
GTP γ^35S binding was measured in the medium containing (mM) HEPES 25, pH 7.4, MgCl2 10, NaCl 100, dithiothreitol 0.5, digitonin 0.003%, 0.2 nM GTP γ^35S, and 5 μg membrane protein in a volume of 150 μl. Test compounds were included in the concentration range from 0.08 to 5,000 nM unless indicated otherwise. Membranes were incubated with 100 μM 5′-adenylylimidodiphosphate for 30 min, and subsequently with 10 μM GDP for 10 min on ice. Drug solutions and membrane were mixed, and then reactions were initiated by adding GTP γ^35S and continued for 30 min at 25° C. Reaction mixtures were filtered over Whatman GF/B filters under vacuum, and washed three times with 3 mL of ice-cold buffer (HEPES 25, pH7.4, MgCl2 10 and NaCl 100). Filters were dried and mixed with scintillant, and counted for ^35S activity using a β-counter. Agonist-induced GTP γ^35S binding was obtained by subtracting that in the absence of agonist. Binding data were analyzed using a non-linear regression method. In case of antagonist assay, the reaction mixture contained 10 nM […] in the presence of test antagonist at concentrations ranging from 0.08 to 5000 nM.
For orientation: GTPγS is a poorly hydrolysed GTP analogue; its binding reports G protein activation.

SMILES strings stand for the structures.

T1 sequence (P21453 whole entry): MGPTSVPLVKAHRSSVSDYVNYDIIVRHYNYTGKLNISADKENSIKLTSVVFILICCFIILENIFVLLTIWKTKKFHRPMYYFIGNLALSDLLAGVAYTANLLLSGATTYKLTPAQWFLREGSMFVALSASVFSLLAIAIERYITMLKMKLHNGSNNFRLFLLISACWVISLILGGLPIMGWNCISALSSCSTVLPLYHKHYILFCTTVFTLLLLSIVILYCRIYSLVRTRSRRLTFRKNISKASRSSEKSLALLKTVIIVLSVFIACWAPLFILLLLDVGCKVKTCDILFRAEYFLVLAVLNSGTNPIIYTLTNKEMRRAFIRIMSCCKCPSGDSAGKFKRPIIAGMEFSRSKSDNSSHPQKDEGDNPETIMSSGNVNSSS

As a reminder, the EC50 is the concentration giving half of the maximal effect. A lower EC50 goes with an effect from little substance. In turn, `CCCCC(CCCOc1ccc(CN2CC(C(=O)O)C2)cc1Cl)Cc1ccc(C)c(C)c1` (stereo not drawn) [1-(3-chloro-4-{[4-(3,4-dimethylbenzyl)octyl]oxy}benzyl)azetidine-3-carboxylic acid] came in with an EC50 of 2.71 nM.

The compound `CCCC(CCCOc1c(C)cc(CN2CC(C(=O)O)C2)cc1C)Cc1ccc(C)c(C)c1` (stereo not drawn) [1-(4-{[4-(3,4-dimethylbenzyl)heptyl]oxy}-3,5-dimethylbenzyl)azetidine-3-carboxylic acid] displayed an EC50 of 2.05 nM.

For the compound `CCCCC(CCCOc1c(F)cc(CN2CC(C(=O)O)C2)cc1OC)Cc1ccc(C)c(C)c1` (stereo not drawn) [1-(4-{[4-(3,4-dimethylbenzyl)octyl]oxy}-3-fluoro-5-methoxybenzyl)azetidine-3-carboxylic acid], the EC50 amounted to 2.91 nM.

`CCCCC(CCCOc1ccc(CN2CC(C(=O)O)C2)cc1F)Cc1ccc(C)c(C)c1` (stereo not drawn) [1-(4-{[4-(3,4-dimethylbenzyl)octyl]oxy}-3-fluorobenzyl)azetidine-3-carboxylic acid] yielded an EC50 of 5.42 nM. This EC50 lies about 1.9-fold higher than the previous one.

`CCCCCC(CCCOc1ccc(CN2CC(C(=O)O)C2)cc1)Cc1ccc(C)c(C)c1` (stereo not drawn) [Compound 1, 1-(4-{[4-(3,4-Dimethylbenzyl)nonyl]oxy}benzyl)azetidine-3-carboxylic acid] yielded an EC50 of 6.04 nM.

In turn, `CCCCC(CCCOc1ccc(CN2CC(C(=O)O)C2)cc1)Cc1ccc(C)c(C)c1` (stereo not drawn) [Compound 2, 1-(4-{[4-(3,4-Dimethylbenzyl)octyl]oxy}benzyl)azetidine-3-carboxylic acid] yielded an EC50 of 1.03 nM. This EC50 is about 5.9-fold lower than that of the compound before.

The compound `CCCC(CCCOc1ccc(CN2CC(C(=O)O)C2)cc1)Cc1ccc(C)c(C)c1` (stereo not drawn) [Compound 3, 1-(4-{[4-(3,4-Dimethylbenzyl)heptyl]oxy}benzyl)azetidine-3-carboxylic acid] yielded an EC50 of 6.51 nM. Against the preceding compound, the EC50 is about 6.3-fold higher.

Turning to `CCC(CCCOc1ccc(CN2CC(C(=O)O)C2)cc1)Cc1ccc(C)c(C)c1` (stereo not drawn) [Compound 4, 1-(4-{[4-(3,4-Dimethylbenzyl)hexyl]oxy}benzyl)azetidine-3-carboxylic acid], the EC50 amounted to 69.2 nM.

With `CCCCCCC(CCCOc1ccc(CN2CC(C(=O)O)C2)cc1)Cc1ccc(C)c(C)c1` (stereo not drawn) [Compound 5, 1-(4-{[4-(3,4-Dimethylbenzyl)decyl]oxy}benzyl)azetidine-3-carboxylic acid], a half-maximal effect (EC50) was put at 102 nM.

The compound `CCCCC(CCCOc1c(C)cc(CN2CC(C(=O)O)C2)cc1C)Cc1ccc(C)c(C)c1` (stereo not drawn) [Compound 6, 1-(4-{[4-(3,4-Dimethylbenzyl)octyl]oxy}-3,5-dimethylbenzyl)azetidine-3-carboxylic acid] displayed a concentration giving a half-maximal response (EC50) of 11.7 nM.

The compound `CCCCC(CCCOc1ccc(CN2CC(C(=O)O)C2)cc1C)Cc1ccc(C)c(C)c1` (stereo not drawn) [Compound 7, 1-(4-{[4-(3,4-Dimethylbenzyl)octyl]oxy}-3-dimethylbenzyl)azetidine-3-carboxylic acid] returned an EC50 of 5.8 nM.

`CCCCC(CCCOc1ccc(CN2CC(C(=O)O)C2)cc1Br)Cc1ccc(C)c(C)c1` (stereo not drawn) [Compound 8, 1-(3-Bromo-4-{[4-(3,4-dimethylbenzyl)octyl]oxy}benzyl)azetidine-3-carboxylic acid] displayed an EC50 of 6.54 nM. The EC50 values of the last two compounds are within 1.5-fold of each other.

Turning to `CCCCCC(CCCOc1ccc(CN2CC(C(=O)O)C2)cc1Cl)Cc1ccc(C)c(C)c1` (stereo not drawn) [Compound 13, 1-(3-Chloro-4-{[4-(3,4-dimethylbenzyl)nonyl]oxy}benzyl)azetidine-3-carboxylic acid], the half-maximal effective concentration (EC50) turned out to be 13.8 nM.

Consider `CCCC(CCCOc1ccc(CN2CC(C(=O)O)C2)cc1Cl)Cc1ccc(C)c(C)c1` (stereo not drawn) [Compound 14, 1-(3-Chloro-4-{[4-(3,4-dimethylbenzyl)heptyl]oxy}benzyl)azetidine-3-carboxylic acid], for which the 50% effective concentration (EC50) is 11.6 nM. The EC50 values of the last two compounds are within 1.5-fold of each other.

On to `CCCC(CCCOc1ccc(CN2CC(C(=O)O)C2)cc1C)Cc1ccc(C)c(C)c1` (stereo not drawn) [Compound 16, 1-(4-{[4-(3,4-Dimethylbenzyl)heptyl]oxy}-3-methylbenzyl)azetidine-3-carboxylic acid], for which the EC50 worked out at 21.2 nM. Against the preceding compound, the EC50 is about 1.8-fold higher.
